Experimental data from publication PMC5025885, “Identification of Doxorubicin as an Inhibitor of the IRE1α-XBP1 Axis of the Unfolded Protein Response” (Scientific Reports, 2016).
pIC50: −log10 of the molar value.

Biological target: T1, IRE1α (Homo sapiens, UniProt O75460)
T1 construct: gene ERN1
Assay: cell-free in vitro IRE1α RNase assay on XBP1 and BLOC1S1 RNA substrates
Assay type: biochemical

T1 sequence (O75460 19-977): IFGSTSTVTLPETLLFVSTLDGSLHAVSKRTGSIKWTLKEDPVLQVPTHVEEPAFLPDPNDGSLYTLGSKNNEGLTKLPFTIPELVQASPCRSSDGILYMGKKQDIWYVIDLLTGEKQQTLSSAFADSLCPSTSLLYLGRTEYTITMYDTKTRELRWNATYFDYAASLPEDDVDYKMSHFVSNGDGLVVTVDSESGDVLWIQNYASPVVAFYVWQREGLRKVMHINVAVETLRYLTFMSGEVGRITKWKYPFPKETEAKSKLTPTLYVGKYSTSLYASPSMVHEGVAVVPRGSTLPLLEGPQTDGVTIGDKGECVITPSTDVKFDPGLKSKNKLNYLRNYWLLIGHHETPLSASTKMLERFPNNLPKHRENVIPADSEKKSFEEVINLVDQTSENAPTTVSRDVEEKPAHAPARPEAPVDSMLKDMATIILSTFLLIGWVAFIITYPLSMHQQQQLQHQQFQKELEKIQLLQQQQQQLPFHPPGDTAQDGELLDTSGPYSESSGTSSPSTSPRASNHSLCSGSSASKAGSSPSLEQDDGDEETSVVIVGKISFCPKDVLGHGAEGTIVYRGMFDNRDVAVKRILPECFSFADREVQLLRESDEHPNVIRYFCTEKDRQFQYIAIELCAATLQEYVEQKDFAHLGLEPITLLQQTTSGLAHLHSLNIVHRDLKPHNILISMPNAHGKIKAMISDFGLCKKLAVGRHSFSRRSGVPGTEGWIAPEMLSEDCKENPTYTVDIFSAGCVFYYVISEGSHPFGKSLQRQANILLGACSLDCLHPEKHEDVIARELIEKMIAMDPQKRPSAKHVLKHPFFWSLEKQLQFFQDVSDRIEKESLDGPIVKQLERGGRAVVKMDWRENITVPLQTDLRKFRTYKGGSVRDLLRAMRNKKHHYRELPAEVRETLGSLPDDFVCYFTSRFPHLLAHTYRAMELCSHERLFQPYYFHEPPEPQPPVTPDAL

`COc1cccc2c1C(=O)c1c(O)c3c(c(O)c1C2=O)C[C@@](O)(C(=O)CO)C[C@@H]3O[C@H]1C[C@H](N)[C@H](O)[C@H](C)O1` [doxorubicin] showed a pIC50 of about 4.70.
